# Measured values: ChEMBL document CHEMBL1201862, “PubChem BioAssay data set” (2004)
#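 Tested at 5 concentrations; 48 h exposure; 96-well plates; endpoints linearly interpolated, else capped at highest concentration. The concentration for 50% growth inhibition is given as GI50.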 Calls of active or inactive are those of the source. Cut-off read from the data, not from the text of the source: active = GI50 up to about 1.1 µM and inactive = higher.
# Key:
# Assay in all cases: NCI-60 cell line screen, 48 h
# LOX IMVI = tested on: LOX IMVI
# HT-29 = tested on: HT-29
# SN12C = tested on: SN12C
# SF-295 = tested on: SF-295
# TK-10 = tested on: TK-10
# KM-20L2 = tested on: KM-20L2
# M14 = tested on: M14
# IGROV-1 = tested on: IGROV-1
# HL-60 = tested on: HL-60
# SF-539 = tested on: SF-539
# A549 = tested on: A549
# UO-31 = tested on: UO-31
# DLD-1 = tested on: DLD-1
# A498 = tested on: A498
# RPMI-8226 = tested on: RPMI-8226
# LXFL 529 = tested on: LXFL 529
# CAKI-1 = tested on: CAKI-1
# NCI-H522 = tested on: NCI-H522
# SK-MEL-5 = tested on: SK-MEL-5
# Malme-3M = tested on: Malme-3M
# EKVX = tested on: EKVX
# SNB-19 = tested on: SNB-19
# NCI-H23 = tested on: NCI-H23
# NCI-H460 = tested on: NCI-H460
# ACHN = tested on: ACHN
# KM12 = tested on: KM12
# UACC-257 = tested on: UACC-257
# SW-620 = tested on: SW-620
# COLO 205 = tested on: COLO 205
# SK-MEL-28 = tested on: SK-MEL-28
# CCRF-CEM = tested on: CCRF-CEM
# K562 = tested on: K562
# NCI-H226 = tested on: NCI-H226
# RXF 393 = tested on: RXF 393
# XF498 = tested on: XF498
# MOLT-4 = tested on: MOLT-4
# SF-268 = tested on: SF-268
# SNB-75 = tested on: SNB-75
# SNB-78 = tested on: SNB-78
# SK-MEL-2 = tested on: SK-MEL-2
# HOP-62 = tested on: HOP-62
# HCC 2998 = tested on: HCC 2998
# M19-MEL = tested on: M19-MEL
# OVCAR-4 = tested on: OVCAR-4
# HOP-92 = tested on: HOP-92
# OVCAR-8 = tested on: OVCAR-8
# U-251 = tested on: U-251
# RXF 631 = tested on: RXF 631
# OVCAR-3 = tested on: OVCAR-3
# OVCAR-5 = tested on: OVCAR-5
# DMS-114 = tested on: DMS-114
# 786-0 = tested on: 786-0
# DMS-273 = tested on: DMS-273
# SR = tested on: SR
# SK-OV-3 = tested on: SK-OV-3
# HCT-15 = tested on: HCT-15
# HCT-116 = tested on: HCT-116
# UACC-62 = tested on: UACC-62
smiles,measurement,setting,value
COc1cc(C2C(C(=O)Nc3cc(F)c(F)cc3F)=C(C)NC(C)=C2C(=O)Nc2cc(F)c(F)cc2F)ccc1O,GI50,LOX IMVI,15.2 µM (inactive)
same,GI50,HT-29,29 µM (inactive)
same,GI50,SN12C,17.7 µM (inactive)
same,GI50,SF-295,21.3 µM (inactive)
same,GI50,TK-10,28.3 µM (inactive)
same,GI50,KM-20L2,32 µM (inactive)
same,GI50,M14,25.2 µM (inactive)
same,GI50,IGROV-1,23.1 µM (inactive)
same,GI50,HL-60,15.7 µM (inactive)
same,GI50,SF-539,26.8 µM (inactive)
same,GI50,A549,24.6 µM (inactive)
same,GI50,UO-31,8.04 µM (inactive)
same,GI50,DLD-1,21.5 µM (inactive)
same,GI50,A498,19.4 µM (inactive)
same,GI50,RPMI-8226,16.3 µM (inactive)
same,GI50,LXFL 529,21.5 µM (inactive)
same,GI50,CAKI-1,12.3 µM (inactive)
same,GI50,NCI-H522,13.3 µM (inactive)
same,GI50,SK-MEL-5,18.5 µM (inactive)
same,GI50,Malme-3M,24.7 µM (inactive)
same,GI50,EKVX,14.9 µM (inactive)
same,GI50,SNB-19,29.2 µM (inactive)
same,GI50,NCI-H23,17.1 µM (inactive)
same,GI50,NCI-H460,27.3 µM (inactive)
same,GI50,ACHN,18.8 µM (inactive)
same,GI50,KM12,13.3 µM (inactive)
same,GI50,UACC-257,17.9 µM (inactive)
same,GI50,SW-620,37.7 µM (inactive)
same,GI50,COLO 205,30.9 µM (inactive)
same,GI50,SK-MEL-28,25.4 µM (inactive)
same,GI50,CCRF-CEM,14 µM (inactive)
same,GI50,K562,18.4 µM (inactive)
same,GI50,NCI-H226,23.6 µM (inactive)
same,GI50,RXF 393,10.6 µM (inactive)
same,GI50,XF498,4.66 µM (inactive)
same,GI50,MOLT-4,11.3 µM (inactive)
same,GI50,SF-268,15 µM (inactive)
same,GI50,SNB-75,2.36 µM (inactive)
same,GI50,SNB-78,22.5 µM (inactive)
same,GI50,SK-MEL-2,22.5 µM (inactive)
same,GI50,HOP-62,12.8 µM (inactive)
same,GI50,HCC 2998,13.9 µM (inactive)
same,GI50,M19-MEL,23.4 µM (inactive)
same,GI50,OVCAR-4,17.3 µM (inactive)
same,GI50,HOP-92,0.982 µM (active)
same,GI50,OVCAR-8,25.4 µM (inactive)
same,GI50,U-251,23.6 µM (inactive)
same,GI50,RXF 631,15 µM (inactive)
same,GI50,OVCAR-3,14.3 µM (inactive)
same,GI50,OVCAR-5,17.4 µM (inactive)
same,GI50,DMS-114,14 µM (inactive)
same,GI50,786-0,26.7 µM (inactive)
COc1ccc(C2ON(c3ccccc3)CC=C2C)cc1 (stereo not drawn),GI50,LOX IMVI,> 100 µM (inactive)
same,GI50,HT-29,34.4 µM (inactive)
same,GI50,SN12C,> 100 µM (inactive)
same,GI50,SF-295,93.8 µM (inactive)
same,GI50,TK-10,> 100 µM (inactive)
same,GI50,KM-20L2,5.48 µM (inactive)
same,GI50,M14,80.7 µM (inactive)
same,GI50,DMS-273,64.7 µM (inactive)
same,GI50,IGROV-1,> 100 µM (inactive)
same,GI50,HL-60,34.6 µM (inactive)
same,GI50,SF-539,> 100 µM (inactive)
same,GI50,A549,62.2 µM (inactive)
same,GI50,UO-31,34 µM (inactive)
same,GI50,DLD-1,79.8 µM (inactive)
same,GI50,RPMI-8226,43.7 µM (inactive)
same,GI50,LXFL 529,66.8 µM (inactive)
same,GI50,CAKI-1,47.8 µM (inactive)
same,GI50,NCI-H522,19.2 µM (inactive)
same,GI50,Malme-3M,> 100 µM (inactive)
same,GI50,EKVX,> 100 µM (inactive)
same,GI50,SNB-19,> 100 µM (inactive)
same,GI50,NCI-H23,52.7 µM (inactive)
same,GI50,NCI-H460,> 100 µM (inactive)
same,GI50,ACHN,79.1 µM (inactive)
same,GI50,KM12,99.1 µM (inactive)
same,GI50,UACC-257,42.5 µM (inactive)
same,GI50,SW-620,> 100 µM (inactive)
same,GI50,COLO 205,99.3 µM (inactive)
same,GI50,SK-MEL-28,61.8 µM (inactive)
same,GI50,SR,37.2 µM (inactive)
same,GI50,CCRF-CEM,33.7 µM (inactive)
same,GI50,K562,60.5 µM (inactive)
same,GI50,NCI-H226,> 100 µM (inactive)
same,GI50,RXF 393,34.4 µM (inactive)
same,GI50,SK-OV-3,> 100 µM (inactive)
same,GI50,XF498,95.7 µM (inactive)
same,GI50,MOLT-4,52.4 µM (inactive)
same,GI50,SF-268,> 100 µM (inactive)
same,GI50,SNB-75,94.8 µM (inactive)
same,GI50,SNB-78,> 100 µM (inactive)
same,GI50,HCT-15,65.9 µM
same,GI50,SK-MEL-2,24 µM (inactive)
same,GI50,HOP-62,> 100 µM (inactive)
same,GI50,HCC 2998,> 100 µM (inactive)
same,GI50,M19-MEL,43.2 µM (inactive)
same,GI50,HCT-116,66.7 µM (inactive)
same,GI50,OVCAR-4,34.5 µM (inactive)
same,GI50,UACC-62,87.1 µM (inactive)
same,GI50,OVCAR-8,> 100 µM (inactive)
same,GI50,U-251,99.8 µM (inactive)
same,GI50,RXF 631,46.6 µM (inactive)
same,GI50,OVCAR-3,> 100 µM (inactive)
same,GI50,OVCAR-5,34 µM (inactive)
same,GI50,786-0,> 100 µM (inactive)
O=C1OC(c2ccccc2)C2CC3CC4(CCC3CN12)OCCO4 (stereo not drawn),GI50,LOX IMVI,> 100 µM (inactive)
same,GI50,HT-29,> 100 µM (inactive)
same,GI50,SN12C,> 100 µM (inactive)
same,GI50,SF-295,> 100 µM (inactive)
same,GI50,TK-10,> 100 µM (inactive)
same,GI50,KM-20L2,> 100 µM (inactive)
same,GI50,M14,> 100 µM (inactive)
same,GI50,DMS-273,> 100 µM (inactive)
same,GI50,IGROV-1,> 100 µM (inactive)
same,GI50,HL-60,67.8 µM (inactive)
same,GI50,SF-539,> 100 µM (inactive)
same,GI50,A549,> 100 µM (inactive)
same,GI50,UO-31,> 100 µM (inactive)
same,GI50,A498,> 100 µM (inactive)
same,GI50,RPMI-8226,94 µM (inactive)
same,GI50,LXFL 529,32.7 µM (inactive)
same,GI50,CAKI-1,> 100 µM (inactive)
same,GI50,NCI-H522,0.142 µM (active)
same,GI50,SK-MEL-5,17.9 µM (inactive)
same,GI50,EKVX,> 100 µM (inactive)
same,GI50,SNB-19,> 100 µM (inactive)
same,GI50,NCI-H23,36.9 µM (inactive)
same,GI50,NCI-H460,> 100 µM (inactive)
same,GI50,KM12,> 100 µM (inactive)
same,GI50,UACC-257,> 100 µM (inactive)
same,GI50,SW-620,> 100 µM (inactive)
same,GI50,COLO 205,> 100 µM (inactive)
same,GI50,SK-MEL-28,> 100 µM (inactive)
same,GI50,SR,> 100 µM (inactive)
same,GI50,CCRF-CEM,> 100 µM (inactive)
same,GI50,K562,45.9 µM (inactive)
same,GI50,NCI-H226,> 100 µM (inactive)
same,GI50,RXF 393,> 100 µM (inactive)
same,GI50,SK-OV-3,> 100 µM (inactive)
same,GI50,XF498,70.8 µM (inactive)
same,GI50,MOLT-4,> 100 µM (inactive)
same,GI50,SF-268,> 100 µM (inactive)
same,GI50,SNB-75,52 µM (inactive)
same,GI50,SNB-78,> 100 µM (inactive)
same,GI50,HCT-15,> 100 µM
same,GI50,SK-MEL-2,> 100 µM (inactive)
same,GI50,HOP-62,> 100 µM (inactive)
same,GI50,HCT-116,> 100 µM (inactive)
same,GI50,OVCAR-4,88.5 µM (inactive)
same,GI50,HOP-92,80 µM (inactive)
same,GI50,UACC-62,21.5 µM (inactive)
same,GI50,OVCAR-8,> 100 µM (inactive)
same,GI50,U-251,> 100 µM (inactive)
same,GI50,RXF 631,> 100 µM (inactive)
same,GI50,OVCAR-3,> 100 µM (inactive)
same,GI50,OVCAR-5,> 100 µM (inactive)
same,GI50,786-0,> 100 µM (inactive)
